Molecular target: SARS-CoV 3CL^pro (Severe acute respiratory syndrome coronavirus, UniProt P0C6X7)
Format: biochemical

## CC(C)C[C@H](NC(=O)[C@@H](NC(=O)[C@H](C)NC(=O)OCc1ccccc1)C(C)C)C(=O)N[C@H](C#N)CCC(N)=O [Cbz-AVLQ-CN]
  increase in potency over the other inhibitors tested: ~10 fold
